Assay: Human microsomal stability assay
Type: in vitro ADME
Conditions: human liver microsomes, 1 μM test compound, 0.5 mg/mL protein, 37° C., pH 7.4
Procedure: Human Microsomal Stability Assay
Human liver microsomes (Cat.NO.: 452117, Corning, USA) were preincubated with test compound for 10 minutes at 37° C. in 100 mM potassium phosphate buffer, pH 7.4. The reactions were initiated by adding NADPH regenerating system. The final incubation mixtures contained 1 μM test compound, 0.5 mg/mL liver microsomal protein, 1 mM MgCl2, 1 mM NADP, 1 unit/mL isocitric dehydrogenase and 6 mM isocitric acid in 100 mM potassium phosphate buffer, pH 7.4. After incubation times of 0, 3, 6, 9, 15 and 30 minutes at 37° C., 300 μL of cold ACN (including internal standard) was added to 100 μL incubation mixture to terminate the reaction. Following precipitation and centrifugation, 100 uL supernatant will be taken out and added 300 uL water. The amount of compound remaining in the samples was determined by LC-MS/MS. Controls of no NADPH regenerating system at zero and 30 minutes were also prepared and analyzed. The results were categorized as: low (7.0 mL/min/kg), medium (7.0-16.2 mL/min/kg) and high (16.2-23.2 mL/min/kg).

| CL (h) [mL/min/kg] | Structure (SMILES) |
| --- | --- |
| 8.1 | CC1(N)CCN(c2ccc3c(n2)CN2CCN(c4ccc(C#N)c5ncccc45)C[C@H]32)CC1 [Example 4B, 5-[(2S)-11-(4-amino-4-methyl-1-piperidyl)-4,7,10-triazatricyclo[7.4.0.02,7]trideca-1(9),10,12-trien-4-yl]quinoline-8-carbonitrile] |
| 6.2 | N#Cc1ccc(N2CCN3Cc4cc(N5CCNCC5)ncc4C3C2)c2cccnc12 (centres unmarked) [Example 1, 5-(11-Piperazin-1-yl-4,7,12-triazatricyclo[7.4.0.02,7]trideca-1(9),10,12-trien-4-yl)quinoline-8-carbonitrile] |

From US12503471B2, “Triazatricycle compounds for the treatment of autoimmune disease” (Hoffmann-La Roche Inc., priority 2019, dated 2025)
